Test results from BindingDB's records for doi:10.1016/j.bmc.2008.09.053 (Chiba University, 2008).

Target: T1, Zinc finger protein GLI1 (Homo sapiens, UniProt P08151)
T1 sequence (P08151 whole entry): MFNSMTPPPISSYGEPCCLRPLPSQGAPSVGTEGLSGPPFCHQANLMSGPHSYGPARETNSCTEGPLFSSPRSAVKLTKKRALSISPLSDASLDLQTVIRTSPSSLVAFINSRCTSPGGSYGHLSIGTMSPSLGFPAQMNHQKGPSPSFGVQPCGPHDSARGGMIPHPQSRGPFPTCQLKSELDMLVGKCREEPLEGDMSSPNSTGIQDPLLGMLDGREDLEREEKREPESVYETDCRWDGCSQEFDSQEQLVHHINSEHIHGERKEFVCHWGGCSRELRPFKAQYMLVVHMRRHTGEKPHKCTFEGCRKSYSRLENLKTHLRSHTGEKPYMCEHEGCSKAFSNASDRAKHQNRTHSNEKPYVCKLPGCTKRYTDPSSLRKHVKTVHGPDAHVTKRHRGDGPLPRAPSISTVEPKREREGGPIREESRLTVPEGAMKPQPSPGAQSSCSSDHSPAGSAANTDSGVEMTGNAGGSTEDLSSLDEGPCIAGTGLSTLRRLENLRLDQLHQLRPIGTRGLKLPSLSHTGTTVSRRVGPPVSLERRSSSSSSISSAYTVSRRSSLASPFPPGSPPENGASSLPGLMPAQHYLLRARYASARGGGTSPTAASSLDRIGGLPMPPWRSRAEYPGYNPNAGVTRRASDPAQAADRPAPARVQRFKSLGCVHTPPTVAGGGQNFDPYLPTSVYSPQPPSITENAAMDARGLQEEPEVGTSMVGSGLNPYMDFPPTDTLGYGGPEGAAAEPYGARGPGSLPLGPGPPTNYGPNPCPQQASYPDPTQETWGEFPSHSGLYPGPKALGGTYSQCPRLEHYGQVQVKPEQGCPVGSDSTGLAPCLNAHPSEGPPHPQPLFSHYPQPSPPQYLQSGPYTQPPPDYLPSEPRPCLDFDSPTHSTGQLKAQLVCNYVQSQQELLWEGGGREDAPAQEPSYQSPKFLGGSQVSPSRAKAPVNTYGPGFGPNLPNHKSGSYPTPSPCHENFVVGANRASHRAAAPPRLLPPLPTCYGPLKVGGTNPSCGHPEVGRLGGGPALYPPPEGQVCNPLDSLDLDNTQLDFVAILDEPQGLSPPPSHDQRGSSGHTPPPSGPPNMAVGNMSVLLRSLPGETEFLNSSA
Assay: Inhibition of GLI1-mediated transcriptional activity in human HaCaT cells by luciferase based reporter gene assay

| SMILES | IC50 [µM] |
| --- | --- |
| C=C(C)[C@@H]1CC[C@]2(C(=O)O)CC[C@]3(C)[C@H](CC[C@@H]4[C@@]5(C)[C@@H](C(=O)O)[C@H](O)C(C)(C)[C@@H]5CC[C@]43C)[C@@H]12 | > 200 |
| C=C(C)[C@@H]1CC[C@]2(C(=O)O)CC[C@]3(C)[C@H](CC[C@@H]4[C@@]5(C)[C@H](CO)[C@@H](O)C(C)(C)[C@@H]5CC[C@]43C)[C@@H]12 [ceanothanolic acid] | 133 |
